Patent US5420129A, “Phenylsulfonylamide pyrimidine” (Hoffmann-La Roche Inc., priority 1992, dated 1995)
pEC50, pIC50: −log10 of the molar value.

Legend:
[1] = biological target: endothelin receptors (human placenta membranes); assay: Inhibition of endothelin binding to human placenta membranes (125I-endothelin); settings: 125I-endothelin 20 pM, 20° C. for 2 hours or 4° C. for 24 hours, read-out: IC50 (concentration required to inhibit 50% of the specific binding of 125I-endothelin)
Procedure: I. Inhibition of endothelin binding to human placenta membranes (see. Life Sci 44:1429 (1989))
Human placenta is homogenized in 5 mM Tris buffer, pH 7.4, which contains 1 mM MgCl2 and 250 mM sucrose. The homogenizate is centrifuged at 4° C. and 3000 g for 15 minutes, the supernatant containing the plasma membrane fraction is centrifuged with 72000 g for 30 minutes and the precipitate is washed with 75 mM Tris buffer, pH 7.4, which contains 25 mM MgCl2. Thereafter, precipitate obtained from in each case 10 g of original tissue is suspended in 1 ml of 75 mM Tris buffer, pH 7.4, containing 25 mM MgCl2 and 250 mM sucrose, and freeze-dried at --20° C. in 1 ml aliquots.
For the binding assay, the freeze-dried membrane preparations are thawed and, after centrifugation at 20° C. and 25000 g for 10 minutes, re-suspended in assay buffer (50 mM Tris buffer, pH 7.4, containing 25 mM MnCl2, 1 mM EDTA and 0.5% of bovine serum albumin). 100 μl of this membrane suspension containing 70 μg of protein are incubated with 50 μl of ^125 I-endothelin (specific activity 2200 Ci/mMol) in assay buffer (25000 cpm, final concentration 20 pM) and 100 μl of assay buffer containing varying concentrations of test compound. The incubation is carried out at 20° C. for 2 hours or at 4° C. for 24 hours. The separation of free and membrane-bound radioligands is carried out by filtration over a glass fiber filter.
The inhibitory activity of compounds of formula I determined in test procedure I is given in Table 1 as the IC50, that as the concentration […] which is required to inhibit 50% of the specific binding of ^1251 -endothelin.

[2] = tested on: isolated rat aorta rings; assay: Endothelin-induced contractions in isolated rat aorta rings; design: species or system rat (Wistar-Kyoto); settings: in the absence of test compounds; endothelium removed; 37° C.; read-out: EC50 of endothelin (concentration required for a half-maximum contraction)
Procedure: II. Inhibition of endothelin-induced contractions in isolated rat aorta rings
Rings with a length of 5 mm were cut out from the thorax aorta of adult Wistar-Kyoto rats. The endothelium was removed by lightly rubbing the internal surface. Each ring was immersed at 37° C. in 10 ml of Krebs-Henseleit solution in an isolated bath while gassing with 95% O2 and 5% CO2. The isometric stretching of the rings was measured. The rings were stretched to a pre-tension of 3 g. After incubation for 10 minutes with the test compound or vehicle cumulative dosages of endothelin-1 were added. The activity of the test compound was determined by calculating the dosage ratios, i.e. the shift to the right (shift to higher values) of the EC50 of endothelin induced by 100 μM of test compound, with EC50 denoting the endothelin concentration required for a half-maximum contraction. […] The EC50 of endothelin in the absence of test compounds is 0.3 nM.

Compound | pIC50 [1] | pEC50 [2]
endothelin: endothelin-1, agonist added in cumulative dosages to contract rat aorta rings | – | 9.52
COc1ccc(Cl)c(Oc2c(COCCO)ncnc2NS(=O)(=O)c2ccc(C(C)(C)C)cc2)c1 [Example 10, 4-tert-Butyl-N-[5-(2-chloro-5-methoxy-phenoxy)-6-(2-hydroxy-ethoxy-methyl)-pyrimidin-4-yl]-benzenesulphonamide] | 6.74 | –

More lines, main results first:

pIC50 [1] | Compound | pEC50 [2]
7.46 | COc1ccc(Cl)c(Oc2c(COCCO)nc(N3CCOCC3)nc2NS(=O)(=O)c2ccc(C(C)(C)C)cc2)c1 [Example 5, 4-tert-butyl-N-[5-(2-chloro-5methoxy-phenoxy)-6-(2-hydroxy-ethoxymethyl)-2-(morpholin-4-yl)-pyrimidin-4-yl]-benzenesulphonamide] | –
6.89 | COc1ccc(Cl)c(Oc2c(CO)nc(N3CCOCC3)nc2NS(=O)(=O)c2ccc(C(C)(C)C)cc2)c1 [Example 3, 4-tert-butyl-N-[5-(2-chloro-5-methoxy-phenoxy)-6-hydroxymethyl-2-(morpholin-4-yl)-pyrimidin-4-yl]-benzenesulphonamide] | –
6.74 | COc1ccc(Cl)c(Oc2c(COCC(O)CO)nc(N3CCOCC3)nc2NS(=O)(=O)c2ccc(C(C)(C)C)cc2)c1 (racemic) [Example 13, (R,S)-4-tert-butyl-N-[5-(2-chloro-5-methoxy-phenoxy)-6-(2,3-dihydroxy-propoxymethyl)-2-(morpholin-4-yl)-pyrimidin-4yl]-benzenesulphonamide] | –
